Measurements reported in article PMC11470957, “Principles of paralog-specific targeted protein degradation engaging the C-degron E3 KLHDC2” (Nature Communications, 2024).
Values joined by “and” are separate entries in the source; they are usually repeats but may differ in a detail not shown here. Equal values may be shown once.

Molecular target: T1, KLHDC2 (Homo sapiens, UniProt Q9Y2U9)
T1 sequence (Q9Y2U9 1-406): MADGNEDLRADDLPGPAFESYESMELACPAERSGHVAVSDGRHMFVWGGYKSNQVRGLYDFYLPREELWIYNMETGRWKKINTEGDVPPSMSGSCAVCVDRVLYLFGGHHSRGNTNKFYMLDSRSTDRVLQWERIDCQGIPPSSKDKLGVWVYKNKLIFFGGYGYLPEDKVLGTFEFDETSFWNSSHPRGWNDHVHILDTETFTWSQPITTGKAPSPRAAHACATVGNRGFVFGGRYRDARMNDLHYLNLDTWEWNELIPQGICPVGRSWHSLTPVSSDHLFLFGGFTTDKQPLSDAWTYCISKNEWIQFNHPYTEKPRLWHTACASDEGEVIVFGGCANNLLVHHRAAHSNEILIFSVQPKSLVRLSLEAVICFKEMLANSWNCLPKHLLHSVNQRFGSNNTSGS
Experiment: Western blot of KLHDC2 levels after cellular dosing

Question: What does the source list for `COC(=O)CNC(=O)Cc1csc(-c2ccc3cccc(OCCN4CCN(C(=O)C[C@@H]5N=C(c6ccc(Cl)cc6)c6c(sc(C)c6C)-n6c(C)nnc65)CC4)c3c2)n1` [SJ46420]?
Answer: KLHDC2 level, Western blot quantification (DMSO = 100) (Fig S6g, SKBR3 Time course, 1 uM, 2hr): 96.2473 and 100.234; KLHDC2 level, Western blot quantification (DMSO = 100) (Fig S6g, SKBR3 Time course, 1 uM, 4hr): 98.547 and 105.246; KLHDC2 level, Western blot quantification (DMSO = 100) (Fig S6g, SKBR3 Time course, 1 uM, 8hr): 108.754 and 118.735; KLHDC2 level, Western blot quantification (DMSO = 100) (Fig S6g, SKBR3 Time course, 5 uM, 2hr): 110.116 and 102.856; KLHDC2 level, Western blot quantification (DMSO = 100) (Fig S6g, SKBR3 Time course, 5 uM, 4hr): 118.1 and 127.234; KLHDC2 level, Western blot quantification (DMSO = 100) (Fig S6g, SKBR3 Time course, 5 uM, 8hr): 125.323 and 132.123; KLHDC2 level, Western blot quantification (DMSO = 100) (Fig S6i, SKBR3, 5uM): 108.759 and 120.207; KLHDC2 level, Western blot quantification (DMSO = 100) (Fig S6i, U2OS, 5uM): 115.927 and 106.939; KLHDC2 level, Western blot quantification (DMSO = 100) (Fig S6h, U2OS Time course, 5uM, 2hr): 102.827 and 100.635; KLHDC2 level, Western blot quantification (DMSO = 100) (Fig S6h, U2OS Time course, 5uM, 4hr): 116.419 and 128.136; KLHDC2 level, Western blot quantification (DMSO = 100) (Fig S6h, U2OS Time course, 5uM, 8hr): 157.536 and 145.235; KLHDC2 level, Western blot quantification (DMSO = 100) (Fig S6h, U2OS Time course, 5uM, 24hr): 121.407 and 133.135; KLHDC2 level, Western blot quantification (DMSO = 100) (Fig S6d, U2OS KO/rescue Dose Response, 0.156 uM): 140 and 155; KLHDC2 level, Western blot quantification (DMSO = 100) (Fig S6d, U2OS KO/rescue Dose Response, 0.313 uM): 192 and 220; KLHDC2 level, Western blot quantification (DMSO = 100) (Fig S6d, U2OS KO/rescue Dose Response, 0.625 uM): 253 and 275; KLHDC2 level, Western blot quantification (DMSO = 100) (Fig S6d, U2OS KO/rescue Dose Response, 1.25 uM): 345 and 380; KLHDC2 level, Western blot quantification (DMSO = 100) (Fig S6d, U2OS KO/rescue Dose Response, 2.5 uM): 540 and 580; KLHDC2 level, Western blot quantification (DMSO = 100) (Fig S6d, U2OS KO/rescue Dose Response, 5 uM): 581 and 620; KLHDC2 level relative to DMSO (100%) (MDA-MB-468, 2.5µM, 24 h, Fig S6b): 158 +/- 1.9%; KLHDC2 level relative to DMSO (100%) (MDA-MB-468, 5µM, 24 h, Fig S6b): 172 +/- 4.4%; KLHDC2 level relative to DMSO (100%) (MDA-MB-468, 10µM, 24 h, Fig S6b): 195 +/- 7.2%; KLHDC2 level relative to DMSO (100%) (PC3, 0.16µM, 24 h, Fig S6e): 65 +/- 9.7%; KLHDC2 level relative to DMSO (100%) (PC3, 0.31µM, 24 h, Fig S6e): 68 +/- 8.9%; KLHDC2 level relative to DMSO (100%) (PC3, 0.63µM, 24 h, Fig S6e): 43 +/- 15%; KLHDC2 level relative to DMSO (100%) (PC3, 1.3µM, 24 h, Fig S6e): 48 +/- 8.5%; KLHDC2 level relative to DMSO (100%) (PC3, 2.5µM, 24 h, Fig S6e): 50 +/- 8.6%; KLHDC2 level relative to DMSO (100%) (PC3, 5µM, 24 h, Fig S6e): 49 +/- 6.1%; KLHDC2 level relative to DMSO (100%) (PC3, 10µM, 24 h, Fig S6e): 40 +/- 7.2%; KLHDC2 level relative to DMSO (100%) (SKBR3, 1µM, 2hr, Fig S6g): 98 +/- 2.6%; KLHDC2 level relative to DMSO (100%) (SKBR3, 1µM, 4hr, Fig S6g): 101 +/- 4.6%; KLHDC2 level relative to DMSO (100%) (SKBR3, 5µM, 2hr, Fig S6g): 106 +/- 5.8%; KLHDC2 level relative to DMSO (100%) (SKBR3, 5µM, 4hr, Fig S6g): 122 +/- 6.3%; KLHDC2 level relative to DMSO (100%) (SKBR3, 5µM, 8hr, Fig S6g): 129 +/- 4.7%; KLHDC2 level relative to DMSO (100%) (U2OS DC2KO (KLHDC2 knockout), 5µM, 24 h, Fig 6b): 0 +/- 0%; KLHDC2 level relative to DMSO (100%) (U2OS KO/Rescue, 0.16µM, 24 h, Fig S6d): 146 +/- 12%; KLHDC2 level relative to DMSO (100%) (U2OS KO/Rescue, 0.31µM, 24 h, Fig S6d): 205 +/- 21%; KLHDC2 level relative to DMSO (100%) (U2OS KO/Rescue, 0.63µM, 24 h, Fig S6d): 264 +/- 16%; KLHDC2 level relative to DMSO (100%) (U2OS KO/Rescue, 1µM + co-dosing 1µM MLN4924, 24 h, Fig 6d): 4170 +/- 238%; KLHDC2 level relative to DMSO (100%) (U2OS KO/Rescue, 1µM, 24 h, Fig 6c): 407 +/- 47%; KLHDC2 level relative to DMSO (100%) (U2OS KO/Rescue, 1µM, 24 h, Fig 6d): 1460 +/- 196%; KLHDC2 level relative to DMSO (100%) (U2OS KO/Rescue, 1.3µM, 24 h, Fig S6d): 362 +/- 25%; KLHDC2 level relative to DMSO (100%) (U2OS KO/Rescue, 2.5µM, 24 h, Fig S6d): 559 +/- 29%; KLHDC2 level relative to DMSO (100%) (U2OS KO/Rescue, 5µM, 24 h, Fig S6d): 600 +/- 32%; KLHDC2 level relative to DMSO (100%) (U2OS KO/Rescue, concentration not printed (line after 5µM), 24 h, Fig S6d): 710 +/- 67%; KLHDC2 level relative to DMSO (100%) (U2OS, 5µM, 2hr, Fig S6h): 101 +/- 1.9%; KLHDC2 level relative to DMSO (100%) (U2OS, 5µM, 4hr, Fig S6h): 122+/- 8.2%; KLHDC2 level relative to DMSO (100%) (U2OS, 5µM, 8hr, Fig S6i): 111 +/- 6.4%; KLHDC2 level relative to DMSO (100%) (U2OS, 5µM, 8hr, Fig S6h): 151 +/- 8.8%; KLHDC2 level relative to DMSO (100%) (U2OS, 5µM, 24hr, Fig S6h): 127 +/- 8.2%
